Entries after “also recorded” stand apart in the source; their conditions may differ.
What was measured:
[1] = tested on: COS7 cells expressing FOXM1 and HLA-A*01:01; test: IFN-gamma production of CTL clone against target cells expressing FOXM1 and HLA-A*01:01; type: cell-based, African green monkey
Text: A cDNA encoding the FOXM1 or HLA-A*01:01 gene was amplified by PCR. The PCR-amplified product was each incorporated into an expression vector. Either or both of the FOXM1 gene-expressing vector and the HLA-A*01:01 gene-expressing vector were introduced into COS7 cells, which is a cell line negative for HLA, using Lipofectamine 2000 (Invitrogen). On the day after gene introduction, COS7 cells were detached and harvested using versene (Invitrogen), and used as the target cell for confirmation of IFN-gamma production (5×10^4 cells/well).
IFN-gamma production of the FOXM1-A01-10-566 (SEQ ID NO: 56)-specific CTL clone against target cells expressing FOXM1 and HLA-A*01:01 was investigated. COS7 cells expressing both FOXM1 and HLA-A*01:01 were prepared as the target cell. COS7 cells expressing either one of FOXM1 and HLA-A*01:01 were prepared as the negative control cell. […] This clearly proves that FOXM1-A01-10-566 (SEQ ID NO: 56) is a peptide generated by antigen processing, and is presented on the cell surface with the HLA-A*01:01 molecule and recognized by CTLs.

[2] = tested on: target cells (C1R-A01) pulsed with peptide; test: IFN-gamma ELISA of CTL lines (HLA-A*01:01); type: cell-based, human; details: CTL line against peptide-pulsed C1R-A01; listed as FOXM1-A01-10-566
Experimental: CTLs were propagated using methods similar to those reported by Riddell et al. (Walter E A et al., N Engl J Med 1995, 333(16): 1038-44; Riddell S R et al., Nat Med 1996, 2(2): 216-23). The CTLs were cultured in 25 ml 5% ABS/AIM-V medium together with two types of Mitomycin C-treated human B lymphoblastoid cell lines (5×10^6 cells/25 ml medium each) and an anti-CD3 antibody (final concentration: 40 ng/ml). On the day after beginning of the culturing, IL-2 (final concentration: 120 IU/ml) was added to the culture. On days 5, 8 and 11, the medium was changed to a 5% ABS/AIM-V medium containing IL-2 (final concentration: 30 IU/ml) (Tanaka H et al., Br J Cancer 2001, 84(1): 94-9; Umano Y et al., Br J Cancer 2001, 84(8): 1052-7; Uchida N et al., Clin Cancer Res 2004, 10(24): 8577-86; Suda T et al., Cancer Sci 2006, 97(5): 411-9; Watanabe T et al., Cancer Sci 2005, 96(8): 498-506).
(§1) Peptide-pulsed C1R-A01 (1×10^4 cells/well) was prepared as the target cell. The IFN-gamma ELISPOT assay and IFN-gamma ELISA were performed according to the assay kit manufacturer's manual.

[3] = tested on: target cells (C1R-A01) pulsed with peptide; test: IFN-gamma ELISA of CTL clones established by limiting dilution (HLA-A*01:01); type: cell-based, human; details: CTL clone against peptide-pulsed C1R-A01; listed as FOXM1-A01-10-566
Experimental: After induction of CTLs in vitro, the CTLs were seeded onto 96-well round-bottomed microplates (Nalge Nunc International) at 1 cell/well or 10 cells/well. The CTLs were cultured with two types of Mitomycin C-treated human B lymphoblastoid cell lines (1×10^4 cells/well each) in a total of 150 micro-l/well 5% ABS/AIM-V medium with an anti-CD3 antibody (final concentration: 30 ng/ml) and IL-2 (final concentration: 125 IU/ml). Ten days later, 50 micro-l 5% ABS/AIM-V medium containing 500 IU/ml IL-2 was added to the culture.
as §1

Q: “SSDPASOLSY (SSDPASQLSY; a peptide derived from FOXM1) [SEQ ID NO: 56]” was tested. Which “IFN-gamma production of peptide-specific CTL clone” value ([1]; COS7 cells expressing both FOXM1 and HLA-A*01:01) did it give?
A: Its value is “showed IFN-gamma production”.

Q: What about the “IFN-gamma production of peptide-specific CTL clone” value ([1]; negative control: COS7 cells expressing either one of FOXM1 and HLA-A*01:01, listed as FOXM1-A01-10-566) of the same sequence?
A: Its value is “a significant IFN-gamma production was not observed; also recorded: a significant IFN-gamma production was not shown”.

Q: What about the “IFN-gamma production by the CTL line (ELISA)” value [2] of the same sequence?
A: The value was “observed; also recorded: CTL line that produce IFN-gamma in a peptide-specific manner was established”.

Q: And the “peptide-specific IFN-gamma production of CTL clone (ELISA)” value [3]?
A: Its value is “showed a peptide-specific IFN-gamma production”.
